Test results published in US20200253860A1, “TOPICAL COMPOSITION FOR ANTIAGING BENEFITS” (Conopco, Inc., d/b/a UNILEVER, priority 2017, published 2020).

System: Nrf2
Test: Nrf2 activation in AREc32 cells (luciferase assay)
Assay type: cell-based
Conditions: for Nrf2 activation fold increase wrt the control: note to Table 1, concentration not stated
Experimental: The AREc32 cells were obtained from CRX biosciences (Dundee, Scotland, UK). AREc32 cells were seeded into 96-well plates (flat-bottom white, opaque, sterile, with lids) at a density of 2×10^4, cells/well in 100 μL of complete media per well. Cell plates were then incubated at 37° C., 5% CO2 in a 95% humidified incubator for 24 hours before active addition. Tert butylhydroquinone (TBHQ) was used as an assay positive control. For performing the Nrf2 activity assay, the cells were lysed using Passive Lysis Buffer (PLB) (5×) procured from Promega. The PLB was diluted in a 1:5 ratio with distilled water to make 1× PLB solution. 20 μL of 1× PLB was added to each well of the 96 well plate, including 2 wells without cell (control wells). The plate was covered with aluminium foil to protect from light and incubated for 20 minutes at room temperature, on a rocker incubator. After 20 minutes, 18 μL of the cell lysate was transferred from the transparent 96 well cell culture plate to an opaque, white, flat bottom 96-well plate. The white flat bottom plates were proceeded for Luciferase assay. The Luciferase assay was performed by using Luciferase Assay System, from Promega. 80 μL of the Luciferase Reagent was added using the injector on the TECAN infinite M1000 instrument. Luminescence was measured for a period of 10 seconds using the Green 1 filter. The typical delay time of 2 seconds, and read time of 10 seconds was used. 4 readings were taken from each well within 1 min. The plate was advanced to the next well for a repeat of the inject-then-read process. The luciferase value was represented as fold change over control in Table 1.

SMILES | Nrf2 activation fold increase wrt the control | Nrf2 activation Fold change wrt control (10 μM)
C=CC(C)(O)CCC=C(C)C (stereo not drawn) [Linalool] | barely any change | –
CC(C)(C)c1cc(O)ccc1O [TBHQ, Tert butylhydroquinone] | – | 4.5 fold
CCC/C=C/C=O [E-2-Hexenal] | 1.1 fold | –
